Patent US4851450A, “Compounds for inhibition of platelet activating factor activity” (priority 1987, dated 1989)
Where two headings read alike, the source gives them in different places.

How the values were obtained:
[1] = tested on: PAF aggregation of washed rabbit platelets; assay: Inhibition of PAF (AGEPC) activity / disaggregation during AGEPC-induced aggregation of washed rabbit platelets; assay type: cell-based; conditions: for IC50: Oryctolagus cuniculus, Platelet
rabbit platelets = assay: [3H]Serotonin secretion by platelets; assay type: cell-based; conditions: Oryctolagus cuniculus, Platelet; 2 min; final concentrations; read-out: 50% secretion of 3H-serotonin at 2 min
Method: The procedure is as follows: PAF and the various test lipid compounds are assessed for platelet stimulatory activity as briefly described. Rabbit platelets, internally labeled with [^3 H]serotonin (New England Nuclear; 28.2 Ci/mmol) are washed on Ficoll-Paque cushions and adjusted to 2.5×10^8 platelets/ml of Tyrode's buffer, pH 7.2. Appropriate dilutions of PAF or the test lipids are prepared in pyrogen-free 0.15M NaCl containing 2.5 mg/ml of crystallized bovine serum albumin; the albumin is required for dispersion of PAF and the test lipids. Four microliters of the various dilutions of PAF and test lipids are added to 200 μl of prewarmed (37° C.) [^3 H]serotonin-labeled platelets in plastic test tubes and the reaction mixture was incubated for 60 s at which time 20 μl of cold 1.5 m formaldehyde were added to stop the reactions. The tubes were immediately cooled to 0° C., centrifuged at 2200×g for 10 min and the supernatants were assayed for percentage of [^3 H]serotonin secretion relative to 100% controls prepared by the addition of Triton X-100 to 200 μl of the starting platelet suspension. The data were plotted linearly and 1 unit of activity was defined as the amount of PAF or test lipids required to effect 50% serotonin release. […]

washed rabbit platelets = assay: Aggregation of washed rabbit platelets (procedure of Demopoulos et al.); assay type: cell-based; conditions: for EC50: Oryctolagus cuniculus, Platelet, final concentrations; for cytotoxicity of the aggregation: washed rabbit platelets
[2] = tested on: Tetrahymena pyriformis cells; assay: Glycogenolysis in intact Tetrahymena pyriformis cells; assay type: cell-based; conditions: glucose measured, FIG. 3
Method: The results were obtained using the following procedure: Tetrahymena pyriformis cells, in log phase, are spun down, washed with saline and resuspended in Tyrodes solution. After 30 min of incubation, the compounds III and IV in bovine serum albumin solution are added and aliquots taken at different time intervals. The aliquots are treated for 2 min in boiled water, sonicated and glucose measured by the method of Bergmeyer et al. (Methods of Enzymatic Analysis, 3, 1196 (Academic Press, N.Y. 1974), the teachings of which are incorporated herein.

rats = assay: Systolic blood pressure in rats (procedure of Tselepis et al.); assay type: in vivo, rat
Text: Biochem. Physiol. 87C(1),41-46 (1987), the teachings of which are incorporated herein.

[3] = Table, final molar concentration, for 2 × 10^-10 M AGEPC, read-out: IC50
[4] = against 2×10^-10 M PAF, final concentrations, read-out: IC50 for 2×10^-10 M PAF

| IC50 [1, 3] | IC50 [1, 4] | EC50 (rabbit platelets) | EC50 (washed rabbit platelets) | Compound | cytotoxicity of the aggregation (washed rabbit platelets) | glycogenolysis [2] | fall in systolic blood pressure (SBP) (rats) | effect on aggregation when added during AGEPC-induced aggregation ([1]; added during AGEPC (PAF)-induced aggregation, FIG. 4) |
| --- | --- | --- | --- | --- | --- | --- | --- | --- |
| 16 µM | 16 µM | 2 µM | 0.2 µM | CCCCCCCCC(O)C(O)CCCCCCCCOCC(O)CO (stereo not shown) [Compound III, 9,10-Dihydroxy-Octadecyl Glycerol] | non-cytotoxic | – | – | – |
| 28 µM | 28 µM | 9 µM | 2 µM | CCCCCCCCC(OC(C)=O)C(CCCCCCCCOCC(COC(C)=O)OC(C)=O)OC(C)=O (stereo not shown) [Compound IV, Tetra-Acetyl-9,10-Dihydroxy-Octadecyl Glycerol] | non-cytotoxic | – | – | – |
| – | – | – | – | 1-O-alkyl-2-acetyl-sn-glyceryl-3-phosphorylcholine [PAF] | – | dramatic influence on glycogenolysis | fall in the systolic blood pressure | – |
| – | – | – | – | thrombin | – | – | – | no effect on platelet aggregation |
